Source: patent US5036046A, “Method for enhancing healing of corneal endothelial wounds” (Eye Research Institute of Retina Foundation, Inc., priority 1988, dated 1991)
“Also recorded” adds a separate entry of the source. Read-outs that look alike come from different tables or passages of the source.

Assays:
[1] = test system: cultured rabbit corneal endothelium; assay: Pharmacological regulation of morphology and mitosis in cultured rabbit corneal endothelium; format: cell-based
[2] = test system: rabbit corneal endothelial cells; assay: Cell shape morphometry of cultured rabbit corneal endothelial cells (Example 1); details: for cell shape at confluence: cells cultured seven days in the presence of the agent; for distribution of major axes (Amax): versus control; for rank order of potency on corneal endothelial cell shape: cyclooxygenase inhibitors, with EGF; for potentiation of EGF-induced elongation: 10^-5 M (equimolar), in presence of EGF
[3] = test system: cultured corneal endothelial cells; details: control cultures and cultures with EGF added
[4] = test system: Corneal endothelial cells; assay: f-actin labelling with rhodamine labelled phallacidin in cultured corneal endothelial cells; details: 1 week in culture
[5] = test system: endothelium of excised corneas; assay: Cell migration near the wound boundary in excised corneas; format: cell-based, New Zealand white rabbits; details: EGF 10 ng/ml, indomethacin 1 μM in M-K medium
[6] = test system: most cell culture systems; details: cited from earlier work
cat corneal endothelium = details: 22° C.; cited from earlier work
[7] = test system: endothelium of excised corneas; assay: Shape of the cells near the wound boundary in excised corneas
[8] = test system: Corneal endothelial cells; assay: Transmission electron microscopy of pharmacologically modulated endothelial phenotypes; details: treated cultures
[9] = test system: endothelium of excised corneas; assay: Endothelial wound area / closure in excised corneas (specular microscopy)
[10] = agent added to TPA containing medium

## C=C[C@@]1(C)CC(=O)[C@]2(O)[C@@]3(C)[C@@H](O)CCC(C)(C)[C@@H]3[C@H](O)[C@H](OC(C)=O)[C@@]2(C)O1 [Forskolin]
[1]; agent added with EGF and INDO
  effect on EGF and INDO-induced elongation: prevented
  effect on cell density / mitosis in presence of EGF and INDO: inhibited endothelial mitosis

## Cholera toxin
[1]
  cell shape / elongation, agent alone: had no effect on cell shape
  effect on EGF and INDO-induced elongation: antagonized
  effect on EGF-induced elongation: EGF-induced elongation did not occur
  effect on TPA-induced elongation: did not prevent elongation
  effect on cell density / mitogenic response to TPA: potentiate the mitogenic response
  effect on cell density / mitosis in presence of EGF and INDO: without preventing increased cell density
  effect on the mitogenic effect of EGF: potentiated

## COc1ccc2c(c1)c(CC(=O)O)c(C)n2C(=O)c1ccc(Cl)cc1 [indomethacin]
[2]
  cell shape at confluence: elongated at confluence with a stellate shape
  rank order of potency on corneal endothelial cell shape: indomethacin<suprofen<flurbiprofen
[2]; cultured with agent
  distribution of major axes (Amax): increases
[1]; [10]
  effect on TPA-induced elongation: marked enhancement of cellular elongation
  effect on cell density / mitogenic response to TPA: had no effect on final cell density
[3]
  synthesis of pgE2: totally inhibits
[4]
  f-actin staining pattern: diffuse reticular staining throughout the cytoplasm

## CC(C(=O)O)c1ccc(-c2ccccc2)c(F)c1 (stereo not shown) [flurbiprofen]
[2]
  rank order of potency on corneal endothelial cell shape: indomethacin<suprofen<flurbiprofen

## CCCCC[C@H](O)/C=C/[C@@H]1[C@@H](C/C=C\CCCC(=O)O)[C@@H](O)C[C@H]1O [pgF2α]
[2]; increasing concentrations added to cells grown with EGF and indomethacin
  effect on the elongation of Amax produced by EGF and indomethacin: has no effect

## C[C@@H]1C[C@H]2[C@@H]3CCC4=CC(=O)C=C[C@]4(C)[C@@]3(F)[C@@H](O)C[C@]2(C)[C@@]1(O)C(=O)CO [dexamethasone]
[2]
  potentiation of EGF-induced elongation: has no effect

## CCCCCCCCCCCCCC(=O)O[C@@H]1[C@@H](C)[C@@]2(O)[C@@H](C=C(CO)C[C@]3(O)C(=O)C(C)=C[C@@H]23)[C@H]2C(C)(C)[C@]12OC(C)=O [TPA]
[1]
  cell density / mitosis, agent alone: increased cell density
  cell shape / elongation, agent alone: caused elongation

## CC(C(=O)O)c1ccc(C(=O)c2cccs2)cc1 (stereo not shown) [suprofen]
[2]
  potentiation of EGF-induced elongation: Potentiation of EGF-induced elongation also occurs
  rank order of potency on corneal endothelial cell shape: indomethacin<suprofen<flurbiprofen

## epidermal growth factor [EGF]
[5]
  migration of cells near the wound boundary compared with the control group: migrated significantly more; also recorded: significantly increased migration
[6]
  time at which DNA synthesis reaches a maximum: about 22 hours
  time at which increased DNA synthesis begins after addition: approximately 15 hours
[2]; at confluence, versus control conditions
  cell density: little or no effect
[2]
  cell shape at confluence: spindle-shaped at confluence
[2]; cultured with agent
  distribution of major axes (Amax): significantly greater distribution of major axes
[2]; cultured with agent, perfectly round cell 3.14
  ratio Per/Amax: decreases significantly
Cat corneal endothelium
  time for association to be complete: approximately 120 minutes
[7]; EGF+indomethacin at 50, 100, 150 minutes, EGF at 100, 150 minutes, p<0.001
  relative average percent change of the shape factor, difference from control (FIG. 3): significantly different from the control group
[7]; one cornea of each group, control 200 minutes
  time of the peak of the shape change: 150 min
[3]
  synthesis of pgE2: unaffected
[8]
  ultrastructure by transmission electron microscopy: Junctional complexes were absent
[9]; EGF 10 ng/ml, indomethacin 1 μM in M-K medium
  wound closure time compared with the control group: shortened the wound closure time
[9]; EGF 10 ng/ml, indomethacin 1 μM in M-K medium, control 20 minutes
  time of maximum wound area after wounding: 10 min
[9]; EGF 10 ng/ml, indomethacin 1 μM in M-K medium, control about 240 minutes
  time for wound area to decrease to 50% of the original size: ≤ 120 min
[9]; after wounding, EGF treated
  time for wounds to close to 80% of the original size: ≤ 250 min

## Pertussis toxin
[1]
  cell density / mitosis, agent alone: had no effect on either parameter
  cell density in combination with EGF or INDO: without significantly altering cell density
  cell shape / elongation, agent alone: had no effect on either parameter
  cell shape in combination with EGF or INDO: restored polygonal cell shape
